Columns and labels:
[1] = target: T1, MBP-SCO6992 (rSCO6992; ORF-1; absR1) (Streptomyces coelicolor, UniProt Q7AKD9); assay: native PAGE zymogram with Fast Garnet; type: biochemical; conditions: 0.2 M sodium acetate pH 5.2
T1 construct: N-terminal MBP fusion (pMAL-c2x) kept, about 82 kDa; E. coli JM109
T1 sequence (Q7AKD9 1-359): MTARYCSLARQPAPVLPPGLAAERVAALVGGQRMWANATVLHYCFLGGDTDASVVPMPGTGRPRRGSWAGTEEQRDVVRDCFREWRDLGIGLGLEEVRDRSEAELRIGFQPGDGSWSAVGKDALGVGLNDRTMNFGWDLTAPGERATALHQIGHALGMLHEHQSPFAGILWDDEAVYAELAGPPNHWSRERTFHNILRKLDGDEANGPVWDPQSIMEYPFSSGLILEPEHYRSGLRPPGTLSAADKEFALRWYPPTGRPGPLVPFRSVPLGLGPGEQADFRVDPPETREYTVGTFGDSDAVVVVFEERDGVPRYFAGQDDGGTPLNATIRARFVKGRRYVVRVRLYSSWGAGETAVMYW

[2] = target: T1, MBP-SCO6992 (rSCO6992; ORF-1; absR1); assay: p-nitrophenol release, absorbance at […] nm; type: biochemical; conditions: 1.67 mM substrate, 83 mM acetate pH 4.5, 37°C, 1 h; without added Zn2+

Compound	native PAGE zymogram with Fast Garnet [1]	p-nitrophenol release, absorbance at 415 nm [2]
COc1ccccc1NC(=O)c1cc2cc(Br)ccc2cc1O[C@@H]1O[C@H](C(=O)O)[C@@H](O)[C@H](O)[C@H]1O [naphthol AS-BI-β-D-glucuronide]	purified MBP-SCO6992 protein had β-glucuronidase activity on an artificial substrate such as AS-BI-β-D-glucuronide	–
O=C(O)[C@H]1O[C@@H](Oc2ccc([N+](=O)[O-])cc2)[C@H](O)[C@@H](O)[C@@H]1O [p-nitrophenyl-β-D-glucuronide]	–	when measuring β-glucuronidase activity using p-nitrophenyl-β-D-glucuronide as substrate, a strong activity was detected

Source: paper PMC9705864, “SCO6992, a Protein with β-Glucuronidase Activity, Complements a Mutation at the absR Locus and Promotes Antibiotic Biosynthesis in Streptomyces coelicolor” (Journal of Microbiology and Biotechnology, 2021)
